# Data published in ChEMBL document CHEMBL2424566, “Preparation of betulinic acid derivatives by chemical and biotransformation methods and determination of cytotoxicity against selected cancer cell lines” (Eur J Med Chem, 2013).
# Active and inactive are the calls of the source. No cut-off for these calls is given here.
# Experiments:
# [1] = Cytotoxicity against human 518A2 cells assessed as cell viability after 96 hrs by SRB assay; type: functional, cell-based; details: 518A2, 96 h
# MCF7 [2] = assay: Cytotoxicity against human MCF7 cells assessed as cell viability after 96 hrs by SRB assay; type: functional, cell-based; details: MCF7, 96 h
# A549 [3] = assay: Cytotoxicity against human A549 cells assessed as cell viability after 96 hrs by SRB assay; type: functional, cell-based; details: A549, 96 h
# A2780 [4] = assay: Cytotoxicity against human A2780 cells assessed as cell viability after 96 hrs by SRB assay; type: functional, cell-based; details: A2780, 96 h
# 8505C = assay: Cytotoxicity against human 8505C cells assessed as cell viability after 96 hrs by SRB assay; type: functional, cell-based
# A549 [5] = assay: Induction of apoptosis in human A549 cells assessed as DNA fragmentation at IC80 after 24 hrs by acridine orange/ethidium bromide staining-based fluorescence microscopic analysis; type: functional, cell-based
# A549 [6] = assay: Cell cycle arrest in human A549 cells assessed as accumulation at S phase at IC80 after 48 hrs by propidium iodide staining-based flow cytometric analysis (19.1 +/- 1.05%); type: functional
# A549 [7] = assay: Induction of apoptosis in human A549 cells assessed as membrane blebbing at IC80 after 24 hrs by acridine orange/ethidium bromide staining-based fluorescence microscopic analysis; type: functional, cell-based
# A549 [8] = assay: Cell cycle arrest in human A549 cells assessed as accumulation at S phase at IC80 by propidium iodide staining-based flow cytometric analysis; type: functional; details: TDE = time-dependent effect
# A549 [9] = assay: Induction of apoptosis in human A549 cells assessed as early apoptosis and secondary necrosis at IC80 after 48 hrs by annexin V-FITC staining-based flow cytometric analysis relative to control; type: functional
# A549 [10] = assay: Cell cycle arrest in human A549 cells assessed as accumulation at G0/G1 phase at IC80 after 24 hrs by propidium iodide staining-based flow cytometric analysis (49.5 +/- 2.51%); type: functional
# A549 [11] = assay: Cell cycle arrest in human A549 cells assessed as accumulation at subG1 phase at IC80 after 48 hrs by propidium iodide staining-based flow cytometric analysis (3.23 +/- 0.25%); type: functional
# A549 [12] = assay: Cell cycle arrest in human A549 cells assessed as accumulation at G2/M phase at IC80 after 24 hrs by propidium iodide staining-based flow cytometric analysis (24.9 +/- 1.46%); type: functional
# [13] = Selectivity index, ratio of IC50 for human CCD-18Co cells to IC50 for human 8505C cells; type: functional, 8505C;CCD-18Co
# A549 [14] = assay: Induction of apoptosis in human A549 cells assessed as early apoptosis and secondary necrosis at IC80 after 24 hrs by annexin V-FITC staining-based flow cytometric analysis relative to control; type: functional
# A549 [15] = assay: Cell cycle arrest in human A549 cells assessed as accumulation at subG1 phase at IC80 after 24 hrs by propidium iodide staining-based flow cytometric analysis (2.73 +/- 0.49%); type: functional
# A549 [16] = assay: Cell cycle arrest in human A549 cells assessed as accumulation at G2/M phase at IC80 after 48 hrs by propidium iodide staining-based flow cytometric analysis (26 +/- 1.1%); type: functional
# [17] = Selectivity index, ratio of IC50 for human CCD-18Co cells to IC50 for human 518A2 cells; type: functional
# A549 [18] = assay: Cell cycle arrest in human A549 cells assessed as accumulation at subG1 phase at IC80 by propidium iodide staining-based flow cytometric analysis; type: functional; details: TDE = time-dependent effect
# A549 [19] = assay: Cell cycle arrest in human A549 cells assessed as accumulation at G0/G1 phase at IC80 by propidium iodide staining-based flow cytometric analysis; type: functional; details: TDE = time-dependent effect
# A549 [20] = assay: Cell cycle arrest in human A549 cells assessed as accumulation at G0/G1 phase at IC80 after 48 hrs by propidium iodide staining-based flow cytometric analysis (48.5 +/- 1.82%); type: functional
# A549 [21] = assay: Cell cycle arrest in human A549 cells assessed as accumulation at S phase at IC80 after 24 hrs by propidium iodide staining-based flow cytometric analysis (20.2 +/- 0.81%); type: functional
# MCF7 [22] = assay: Selectivity index, ratio of IC50 for human CCD-18Co cells to IC50 for human MCF7 cells; type: functional
# A549 [23] = assay: Induction of apoptosis in human A549 cells assessed as chromatin condensation at IC80 after 24 hrs by acridine orange/ethidium bromide staining-based fluorescence microscopic analysis; type: functional, cell-based
# A549 [24] = assay: Cell cycle arrest in human A549 cells assessed as accumulation at G2/M phase at IC80 by propidium iodide staining-based flow cytometric analysis; type: functional; details: TDE = time-dependent effect
# A549 [25] = assay: Induction of apoptosis in human A549 cells assessed as apoptotic bodies at IC80 after 24 hrs by acridine orange/ethidium bromide staining-based fluorescence microscopic analysis; type: functional, cell-based
# A549 [26] = assay: Induction of apoptosis in human A549 cells assessed as occurrence of typical DNA ladders at IC80 after 72 hrs by agarose gel electrophoresis; type: functional, cell-based
# [27] = Cytotoxicity against human CCD-18Co cells assessed as cell viability after 96 hrs by SRB assay; type: cell-based
# A549 [28] = assay: Selectivity index, ratio of IC50 for human CCD-18Co cells to IC50 for human A549 cells; type: functional
# A2780 [29] = assay: Selectivity index, ratio of IC50 for human CCD-18Co cells to IC50 for human A2780 cells; type: functional
Structure (SMILES),IC50 [1] [µM],IC50 (MCF7 [2]) [µM],IC50 (A549 [3]) [µM],IC50 (A2780 [4]) [µM],IC50 (8505C) [µM],Activity (A549 [5]),Activity (A549 [7]),Activity (A549 [23]),Activity (A549 [25]),IC50 [27] [µM],other results
C/C(=N\Nc1ccc([N+](=O)[O-])cc1[N+](=O)[O-])[C@@H]1CC[C@]2(C(=O)O)CC[C@]3(C)[C@H](CC[C@@H]4[C@@]5(C)CC/C(=N\Nc6ccc([N+](=O)[O-])cc6[N+](=O)[O-])C(C)(C)[C@@H]5CC[C@]43C)[C@@H]12,> 100,60.2,> 100,53.8,> 100,,,,,,
C[C@@H](C=O)[C@@H]1CC[C@]2(C(=O)O)CC[C@]3(C)[C@H](CC[C@@H]4[C@@]5(C)CCC(O)C(C)(C)[C@@H]5CC[C@]43C)[C@@H]12 (stereo partly specified),52.9,44.4,46.9,50.3,55.2,,,,,,
CC(=O)[C@@H]1CC[C@]2(C(=O)O)CC[C@]3(C)[C@H](CC[C@@H]4[C@@]5(C)CCC(=O)C(C)(C)[C@@H]5CC[C@]43C)[C@@H]12,43.5,47.1,59.1,16.1,64.1,,,,,,
C=C(C)[C@@H]1CC[C@]2(C(=O)OC)CC[C@]3(C)[C@H](CC[C@@H]4[C@@]5(C)CCC(=O)C(C)(C)[C@@H]5CC[C@]43C)[C@@H]12 [METHYL BETULONATE],68,98.1,> 100,36.2,> 100,,,,,,
C=C(C)[C@@H]1CC[C@]2(C(=O)OCc3ccccc3)CC[C@]3(C)[C@H](CC[C@@H]4[C@@]5(C)CC/C(=N\Nc6ccc([N+](=O)[O-])cc6[N+](=O)[O-])C(C)(C)[C@@H]5CC[C@]43C)[C@@H]12,> 100,> 100,> 100,66.7,> 100,,,,,,
C[C@@H](C=O)[C@@H]1CC[C@]2(C(=O)O)CC[C@]3(C)[C@H](CC[C@@H]4[C@@]5(C)CC/C(=N\Nc6ccc([N+](=O)[O-])cc6[N+](=O)[O-])C(C)(C)[C@@H]5CC[C@]43C)[C@@H]12,1.91,2.51,1.79,1.76,2.44,Active,Active,Active,Active,8.3,Activity (A549 [6]): 14.6%; Activity (A549 [8]): tde; Activity (A549 [9]): 8%; Activity (A549 [10]): 60.9%; Activity (A549 [11]): 18.3%; Activity (A549 [12]): 13.9%; Ratio IC50 [13]: 3; Activity (A549 [14]): 12%; Activity (A549 [15]): 8.77%; Activity (A549 [16]): 15.9%; Ratio IC50 [17]: 3; Activity (A549 [18]): tde; Activity (A549 [19]): tde; Activity (A549 [20]): 49.7%; Activity (A549 [21]): 14.8%; Ratio IC50 (MCF7 [22]): 3; Activity (A549 [24]): tde; Activity (A549 [26]): Active; Ratio IC50 (A549 [28]): 3; Ratio IC50 (A2780 [29]): 3
CC(=O)[C@@H]1CC[C@]2(C(=O)O)CC[C@]3(C)[C@H](CC[C@@H]4[C@@]5(C)CC[C@H](O)C(C)(C)[C@@H]5CC[C@]43C)[C@@H]12 [PLATANIC ACID],97.5,63.2,75.4,68,93.6,,,,,,
C=C(C)[C@@H]1CC[C@]2(C(=O)OC)CC[C@]3(C)[C@H](CC[C@@H]4[C@@]5(C)CC[C@H](O)C(C)(C)[C@@H]5CC[C@]43C)[C@@H]12 [METHYL BETULINATE],16.9,16.9,17.2,16.3,17.2,,,,,,
C/C(=N\Nc1ccc([N+](=O)[O-])cc1[N+](=O)[O-])[C@@H]1CC[C@]2(C(=O)O)CC[C@]3(C)[C@H](CC[C@@H]4[C@@]5(C)CC[C@H](O)C(C)(C)[C@@H]5CC[C@]43C)[C@@H]12,9.09,6.84,7.62,11.3,8.72,Active,Active,Active,Active,56.7,Ratio IC50 [13]: 5; Ratio IC50 [17]: 5; Ratio IC50 (MCF7 [22]): 5; Ratio IC50 (A549 [28]): 5; Ratio IC50 (A2780 [29]): 5
C[C@H](C=O)[C@@H]1CC[C@]2(C(=O)O)CC[C@]3(C)[C@H](CC[C@@H]4[C@@]5(C)CC/C(=N\Nc6ccc([N+](=O)[O-])cc6[N+](=O)[O-])C(C)(C)[C@@H]5CC[C@]43C)[C@@H]12,1.76,2.41,2,1.81,2.17,,,,,,
CC(=O)[C@@H]1CC[C@]2(C(=O)O)CC[C@]3(C)[C@H](CC[C@@H]4[C@@]5(C)CC/C(=N\Nc6ccc([N+](=O)[O-])cc6[N+](=O)[O-])C(C)(C)[C@@H]5CC[C@]43C)[C@@H]12,14.6,7.52,12.1,9.1,16.9,Active,Active,Active,Active,43.5,
C=C(C)[C@@H]1CC[C@]2(C(=O)O)CC[C@]3(C)[C@H](CC[C@@H]4[C@@]5(C)CCC(=O)C(C)(C)[C@@H]5CC[C@]43C)[C@@H]12 [BETUNOLIC ACID],12.9,,10.4,5.97,14,,,,,,
C=C(C)[C@@H]1CC[C@]2(C(=O)O)CC[C@]3(C)[C@H](CC[C@@H]4[C@@]5(C)CC[C@H](O)C(C)(C)[C@@H]5CC[C@]43C)[C@@H]12 [BETULINIC ACID],14.8,14,13.3,8.75,12.6,Active,Active,Active,Active,43.6,Activity (A549 [6]): 0.33%; Activity (A549 [8]): tde; Activity (A549 [9]): >50%; Activity (A549 [10]): 36.7%; Activity (A549 [11]): 98.5%; Activity (A549 [12]): 20.1%; Activity (A549 [14]): 32%; Activity (A549 [15]): 18.8%; Activity (A549 [16]): 0.17%; Activity (A549 [18]): tde; Activity (A549 [19]): tde; Activity (A549 [20]): 0.96%; Activity (A549 [21]): 20.1%; Activity (A549 [24]): tde
C=C(C)[C@@H]1CC[C@]2(C(=O)OC)CC[C@]3(C)[C@H](CC[C@@H]4[C@@]5(C)CC/C(=N\Nc6ccc([N+](=O)[O-])cc6[N+](=O)[O-])C(C)(C)[C@@H]5CC[C@]43C)[C@@H]12,> 100,> 100,> 100,> 100,> 100,,,,,,
C/C(=N/O)[C@@H]1CC[C@]2(C(=O)O)CC[C@]3(C)[C@H](CC[C@@H]4[C@@]5(C)CC[C@H](O)C(C)(C)[C@@H]5CC[C@]43C)[C@@H]12,63.2,52.2,53.7,54.4,55.9,,,,,,
C=C(C)[C@@H]1CC[C@]2(C(=O)O)CC[C@]3(C)[C@H](CC[C@@H]4[C@@]5(C)CC/C(=N\Nc6ccc([N+](=O)[O-])cc6[N+](=O)[O-])C(C)(C)[C@@H]5CC[C@]43C)[C@@H]12,13.5,8.17,21.4,6.22,25.9,Active,Active,Active,Active,18.1,Ratio IC50 [17]: 1; Ratio IC50 (MCF7 [22]): 1; Ratio IC50 (A2780 [29]): 1
